assay: not given

Row | logP | SMILES
1 | 2.97 | CCCOC(=O)Nc1ccc(OCC)c(OCC)c1
2 | 2.74 | C=CCOC(=O)Nc1ccc(OCC)c(OCC)c1
3 | 2.58 | CCOC(=O)Nc1ccc(OCC)c(OCC)c1
4 | 1.98 | COC(=O)Nc1ccc([N+](=O)[O-])cc1
5 | 2.71 | COC(=O)Nc1cccc(Br)c1
6 | 1.77 | COC(=O)Nc1ccc(OC)cc1
7 | 3.35 | CCCCOC(=O)Nc1ccc(OCC)c(OCC)c1
8 | 3.33 | CCOc1ccc(NC(=O)OCC(C)C)cc1OCC
9 | 3.32 | CCOc1ccc(NC(=O)OCc2ccccc2)cc1OCC
10 | 2.19 | COC(=O)Nc1ccccc1Cl
11 | 3.39 | CCOc1ccc(NC(=O)OC(CBr)CBr)cc1OCC
12 | 3.41 | CCOc1ccc(NC(=O)OC2CCCC2)cc1OCC
13 | 2.59 | COC(=O)Nc1cccc(Cl)c1
14 | 2.22 | CCOc1ccc(NC(=O)OCCOC)cc1OCC
15 | 2.17 | COC(=O)Nc1cccc(F)c1
16 | 2.52 | COC(=O)Nc1ccc(Cl)cc1
17 | 2.88 | COC(=O)Nc1cccc(I)c1
18 | 2.28 | CCOc1cccc(NC(=O)OC)c1
19 | 2.2 | CCOc1ccc(NC(=O)OC)cc1OCC
20 | 1.67 | COC(=O)Nc1ccc(C#N)cc1
21 | 2.36 | COC(=O)Nc1ccccc1I
22 | 2.02 | COC(=O)Nc1ccc(F)cc1

assay: method code SF-AS, from DOI: 10.1016/s0021-9673(00)94589-8, PMID: 3356765

Row | logP | SMILES
23 | 2.09 | COC(=O)Nc1ccccc1C(F)(F)F
24 | 1.63 | COC(=O)Nc1cccc(C(C)=O)c1
25 | 1.77 | COC(=O)Nc1cccc(C#N)c1
26 | 2.74 | COC(=O)Nc1cccc(C(F)(F)F)c1
27 | 2.27 | COC(=O)Nc1ccc(C)cc1
28 | 1.95 | COC(=O)Nc1cccc([N+](=O)[O-])c1
29 | 2.4 | CCOc1ccccc1NC(=O)OC
30 | 2.68 | C#CCOC(=O)Nc1ccc(OCC)c(OCC)c1
31 | 2.25 | COC(=O)Nc1ccccc1Br
32 | 2.13 | CCOc1ccc(NC(=O)OCCC#N)cc1OCC
33 | 3.68 | CCCCc1ccc(NC(=O)OC)cc1
34 | 2.72 | CCc1cccc(NC(=O)OC)c1
35 | 1.84 | COC(=O)Nc1ccccc1OC
36 | 2.11 | CCOc1ccc(NC(=O)OC)cc1
37 | 1.92 | COC(=O)Nc1cccc(OC)c1
38 | 2.72 | CCc1ccc(NC(=O)OC)cc1
39 | 1.66 | COC(=O)Nc1ccccc1F
40 | 2.82 | CCOc1ccc(NC(=O)OC(C)C)cc1OCC
41 | 2.07 | COC(=O)Nc1ccccc1[N+](=O)[O-]
42 | 2.22 | COC(=O)Nc1cccc(C)c1
43 | 1.69 | COC(=O)Nc1ccccc1C

Reference: the SangsterLogP compilation
